Measured values published in patent US20260265329A1, “POLYPEPTIDE AND DERIVATIVE THEREOF, COMPOSITION, AND USE THEREOF” (HANGZHOU SCIWIND BIOSCIENCES CO., LTD., priority 2023, published 2026).
Starred links: 1 amine or outer side, 2 acyl side, 3 side chain; linkers in the order of their positions; H or OH if unused. Non-standard residues stand in square brackets, D forms with d. Residues, ends and D or L forms follow the SMILES beside them. *: point of attachment. C20 diacid = O=C(O)CCCCCCCCCCCCCCCCCCC(=O)*; γGlu = O=C(O)[C@H](CCC(=O)[*:2])N[*:1]; Hyp = O=C(O)[C@@H]1C[C@@H](O)CN1

Legend:
[1] = Heat accelerated stability assay, 40° C., detection on 10 d and 20 d; assay type: physicochemical; conditions: 1 mg/mL, pH about 7.4, 40° C.
Method in brief: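 Polypeptide derivatives at 1 mg/mL with sodium dihydrogen phosphate (1.42 mg/mL) in water, pH ~7.4, sterile-filtered and held at 40° C. Sampled at 10 d and 20 d, centrifuged, and supernatant analysed by HPLC (214 nm, 25° C., phosphate pH 5.8/ACN gradient) for concentration and purity.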

[2] = Efficacy assay in DIO SD rats, dose-dependent study (Example 6); assay type: in vivo
Method: SPF male DIO SD rats (36-37 weeks, […], fed with high-fat diet for 34 weeks from 3-week age on) were employed in this study. The experimental animals were exposed to a room temperature of 20° C.-23° C. and a relative humidity of 40%-50%, and were provided with high-fat diet D12492 and purified water supplied with water feeding bottles for free intake throughout the construction of the DIO animal model and the study. Based on their mean body weight, the animals were assigned to 6 groups designated as B1-B6 (n=5). Administration via subcutaneous injection was conducted once a day for 10 continuous days, wherein the first day of administration was designated as Day 1 (D1), and on Day 0, the initial body weight of the animals were recorded and the initial feed was added, and on Day 1-Day 11, the body weight of the studied animals as well as the remaining food were recorded daily for calculating the percentage of weight change and the amount of food intake, any anomalies during which were required to be recorded and reported. During the study, the rats were in good condition and no anomaly was observed. Weight change=(BWDn−BWD1)/BWD1*100%, wherein BW represented the value of body weight, and D1 and Dn represented the first and Nth days of administration respectively. Dots in the figures were represented utilizing mean±standard error of the mean (SEM). Accumulated food intake was the total amount of food intake for animals of each group prior to a certain time point post dose.

human amylin receptors = molecular target: T1, human amylin receptors (Homo sapiens, UniProt O60896+P30988); test: Luciferase assay in stably transfected amylin receptor/CRE-luc CHO cell line; assay type: cell-based; conditions: for Relative activity: EC50 ratio of Cagrilintide to the compound, Cagrilintide 100%; for EC50: amylin receptor/CRE-luc CHO cells, 24 hours incubation, luminescence
T1 construct: host or cells: CHO-K1/Ga15/AMY3 cells, further stably transfected with a CRE-luciferase plasmid
T1 sequence (P30988 25-474): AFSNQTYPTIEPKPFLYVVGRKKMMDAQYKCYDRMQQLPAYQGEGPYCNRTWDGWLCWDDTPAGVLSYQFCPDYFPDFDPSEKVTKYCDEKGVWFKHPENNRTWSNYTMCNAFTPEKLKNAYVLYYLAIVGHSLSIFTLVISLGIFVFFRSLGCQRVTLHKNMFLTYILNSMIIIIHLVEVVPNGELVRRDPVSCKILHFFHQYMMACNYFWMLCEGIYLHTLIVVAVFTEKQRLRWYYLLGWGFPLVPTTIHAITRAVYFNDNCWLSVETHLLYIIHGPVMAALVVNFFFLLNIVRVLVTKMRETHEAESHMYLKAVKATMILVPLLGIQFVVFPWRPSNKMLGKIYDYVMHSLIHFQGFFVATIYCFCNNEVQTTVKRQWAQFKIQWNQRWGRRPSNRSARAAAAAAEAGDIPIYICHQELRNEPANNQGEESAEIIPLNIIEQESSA
T1 sequence (O60896 24-148 partner): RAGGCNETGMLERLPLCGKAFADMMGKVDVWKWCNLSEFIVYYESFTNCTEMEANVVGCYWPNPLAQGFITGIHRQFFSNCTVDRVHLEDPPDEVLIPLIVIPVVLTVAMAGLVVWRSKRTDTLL

[3] = Efficacy assay in SD rats, dose-dependent study (Example 5); assay type: in vivo
Method: SPF male SD rats (7-8 weeks, 220-230 g) were employed in this study after health inspection and quarantine. The experimental animals were exposed to a room temperature of 20° C.-23° C. and a relative humidity of 40%-50%, and were provided with Co60 mouse reproduction feed 1035 and purified water supplied with water feeding bottles for free intake throughout the health inspection and quarantine and the study. […] Using a single dose administered via subcutaneous injection, the study lasted for a total of 6 days with the day of administration designated as Day 1/Time 0 (TO), wherein on Day 0, the initial body weight of the animals were recorded and the initial feed was added, and on Day 1-Day 5, the body weight of the studied animals as well as the remaining food were recorded daily for calculating the percentage of weight change and the amount of food intake, any anomalies during which were required to be recorded and reported. During the study, the rats were in good condition and no anomaly was observed. Weight change=(BWTn−BWT0)/BWT0* 100%, wherein BW represented the value of body weight, and T0 and Tn represented the time points of dosing and n hours post dose respectively. Dots in the figures were represented utilizing mean±standard error of the mean (SEM). Accumulated food intake was the total amount of food intake for each of the animals prior to a certain time point post dose.

in vivo = test: in vivo; set-up: species or system SD rats; conditions: male, SD, rat, sc, 1 mg/kg
Method: The animals received a subcutaneous injection of corresponding compounds for testing (1 mg/kg and 5 ml/kg), and the day of administration was designated as D1. The whole blood of the animals was collected pre dose (-10 min) on D1 and post dose at D1-2h, D1-4h, D1-6h, D2-24h, D3-48h, D4-72h, D5-96h, and D6-120 h and was processed into plasma (using EDTA for anticoagulation). Liquid chromatography-tandem mass spectrometry (LC-MS/MS) was used to detect the concentration of drug molecules in the plasma, and GraphPad Prism 10 was utilized to plot a concentration-time curve for the drugs whose pharmacokinetic parameters including Cmax, Tmax, T1/2, AUC, and MRT were then calculated with PKSolver.

[4] = Heat accelerated stability assay, 40° C., detection on 7 d and 28 d; assay type: physicochemical
Method in brief: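 Derivatives at 1 mg/mL in water with sodium dihydrogen phosphate (1.42 mg/mL), pH about 7.4, sterile-filtered, stored sealed at 40° C. On days 7 and 28, appearance noted; after centrifugation, supernatant concentration and purity measured by reversed-phase HPLC at 214 nm (water/0.05% TFA–acetonitrile gradient).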

[5] = Animal study in SD rats (Example 4), weight change and food consumption; assay type: in vivo; conditions: 30 nmol/kg subcutaneous (FIGS. 2A, 2B)
Method: SPF male SD rats (7-8 weeks, 200-250 g) were employed in this study after health inspection and quarantine. The experimental animals were exposed to a room temperature of 20° C.-23° C. and a relative humidity of 40%-50%, and were provided with Co60 mouse reproduction feed 1035 and purified water supplied with water feeding bottles for free intake throughout the health inspection and quarantine and the study. Based on their mean body weight, 5 rats were assigned to each testing group for the derivatives. The rats were subcutaneously administered the derivatives at a dose of 30 nmol/kg or a vehicle (PBS pH7.4), and the dosing timepoint was recorded for each group. After dosing, the rats were put back into cages where they lived and could have access to food and water. Food consumption and weight change of the rats were recorded online or manually every 24 hours.

[6] = background statement; cited from earlier work
[7] = subcutaneous once a day for 10 days, 3 and 10 nmol/kg (FIGS. 4A, 4B)
[8] = single subcutaneous dose 10, 30, 100 nmol/kg (FIGS. 3A-3D)

SMILES: CC[C@H](C)[C@H](NC(=O)[C@@H]1CCCN1C(=O)[C@H](CCCCN)NC(=O)[C@H](CC(C)C)NC(=O)[C@H](CCC(N)=O)NC(=O)[C@H](CCC(N)=O)NC(=O)[C@H](CO)NC(=O)[C@H](CO)NC(=O)[C@H](Cc1c[nH]cn1)NC(=O)[C@H](CCCNC(=N)N)NC(=O)[C@H](CC(C)C)NC(=O)[C@H](Cc1ccccc1)NC(=O)[C@H](CC(=O)O)NC(=O)[C@H](C)NC(=O)[C@H](CC(C)C)NC(=O)[C@H](CCCNC(=N)N)NC(=O)[C@H](CCC(N)=O)NC(=O)[C@@H](NC(=O)[C@H](C)NC(=O)[C@H](C)NC(=O)[C@@H](NC(=O)[C@H](CO)NC(=O)[C@H](CC(C)C)NC(=O)[C@H](CCC(N)=O)NC(=O)[C@H](CO)NC(=O)[C@H](C)NC(=O)CC[C@H](NC(=O)CCCCCCCCCCCCCCCCCCC(=O)O)C(=O)O)[C@@H](C)O)[C@@H](C)O)C(=O)N[C@@H](CC(C)C)C(=O)N1CCC[C@H]1C(=O)N1CCC[C@H]1C(=O)N[C@H](C(=O)N[C@@H](CC(N)=O)C(=O)N[C@H](C(=O)NCC(=O)N[C@@H](CO)C(=O)N[C@@H](CC(N)=O)C(=O)N[C@H](C(=O)N1C[C@H](O)C[C@H]1C(N)=O)[C@@H](C)O)C(C)C)[C@@H](C)O [M41] ({C20 diacid-γGlu}-ASQLSTAATQRLADFLRHSSQQLKPILPPTNVGSNT[Hyp]-NH2)
- Reduction in purity, 10 d ([1]; 10 d): 2.93%
- Reduction in purity, 20 d ([1]; 20 d): 4.26%
- Body weight and food intake reduction compared with Cagrilintide ([2]; equivalent dosage): performed better than Cagrilintide at the equivalent dosage
- Effect on body weight [2, 7]: dose-dependently reduced
- Effect on food intake [2, 7]: dose-dependently reduced
- Relative activity (human amylin receptors): 113%
- EC50 (human amylin receptors): 0.08 nM
- Body weight and food intake reduction compared with Cagrilintide ([3]; equivalent dosage): performed better than Cagrilintide at the equivalent dosage
- Effect on body weight [3, 8]: dose-dependently reduced
- Effect on food intake [3, 8]: dose-dependently reduced
- AUC(0-inf) (in vivo): 257 µg·h/mL
- AUC(0-t) (in vivo): 250 µg·h/mL
- Cmax (in vivo): 4780 ng/mL
- MRT inf (in vivo): 45.9 h
- Tmax (in vivo): 24 h
- half-life (in vivo): 23.7 h

SMILES: CC[C@H](C)[C@H](NC(=O)[C@H](CC(=O)O)NC(=O)[C@H](CCCNC(=N)N)NC(=O)[C@H](CC(=O)O)NC(=O)[C@H](CCCNC(=N)N)NC(=O)[C@H](CC(=O)O)NC(=O)[C@@H](NC(=O)[C@H](Cc1ccccc1)NC(=O)[C@H](Cc1c[nH]cn1)NC(=O)[C@H](CCCNC(=N)N)NC(=O)[C@H](CC(C)C)NC(=O)[C@H](Cc1ccccc1)NC(=O)[C@H](CC(=O)O)NC(=O)[C@H](C)NC(=O)[C@H](CC(C)C)NC(=O)[C@H](CCCNC(=N)N)NC(=O)[C@H](CCC(N)=O)NC(=O)[C@@H](NC(=O)[C@H](C)NC(=O)[C@H](C)NC(=O)[C@@H](NC(=O)[C@H](CO)NC(=O)[C@H](CC(C)C)NC(=O)[C@H](CCC(N)=O)NC(=O)[C@H](CO)NC(=O)[C@H](C)NC(=O)CC[C@H](NC(=O)CCCCCCCCCCCCCCCCCCC(=O)O)C(=O)O)[C@@H](C)O)[C@@H](C)O)[C@@H](C)O)C(=O)N[C@@H](CC(C)C)C(=O)N1CCC[C@H]1C(=O)N1CCC[C@H]1C(=O)N[C@H](C(=O)N[C@@H](CC(N)=O)C(=O)N[C@H](C(=O)NCC(=O)N[C@@H](CO)C(=O)N[C@@H](CC(N)=O)C(=O)N[C@H](C(=O)N1CCC[C@H]1C(N)=O)[C@@H](C)O)C(C)C)[C@@H](C)O [M6] ({C20 diacid-γGlu}-ASQLSTAATQRLADFLRHFTDRDRDILPPTNVGSNTP-NH2)
- Relative activity (human amylin receptors): 62%
- EC50 (human amylin receptors): 0.042 nM
- Purity from the reversed phase chromatography-214 nm, 0 d ([4]; 1 mg/mL, pH about 7.4, 40° C., 0 d): 91.52
- Purity from the reversed phase chromatography-214 nm, 7 d ([4]; 1 mg/mL, pH about 7.4, 40° C., 7 d): 90.98
- Purity from the reversed phase chromatography-214 nm, 28 d ([4]; 1 mg/mL, pH about 7.4, 40° C., 28 d): 92.33
- Change of spectra of reversed phase chromatography after heat acceleration ([4]; after 7 days or even 1 month, 40° C. (FIG. 1)): almost no change
- Change (7 d − 0 d) ([4]; purity on 7 d − purity on 0 d, 40° C., pH about 7.4): −0.54
- Change (28 d − 0 d) ([4]; purity on 28 d − purity on 0 d, 40° C., pH about 7.4): 0.81
- Activity on weight loss and food intake compared with Cagrilintide [5]: the most active one with an activity notably higher than Cagrilintide

SMILES: CC[C@H](C)[C@H](NC(=O)[C@@H]1CCCN1C(=O)CNC(=O)[C@H](Cc1ccccc1)NC(=O)[C@H](CC(N)=O)NC(=O)[C@H](CC(N)=O)NC(=O)[C@H](CO)NC(=O)[C@H](CO)NC(=O)[C@H](Cc1c[nH]cn1)NC(=O)[C@@H](NC(=O)[C@H](CC(C)C)NC(=O)[C@H](Cc1ccccc1)NC(=O)[C@H](CC(N)=O)NC(=O)[C@H](C)NC(=O)[C@H](CC(C)C)NC(=O)[C@H](CCCNC(=N)N)NC(=O)[C@H](CCC(N)=O)NC(=O)[C@@H](NC(=O)[C@H](C)NC(=O)[C@@H]1CSSC[C@H](NC(=O)[C@@H](N)CCCCN)C(=O)N[C@@H](CC(N)=O)C(=O)N[C@@H]([C@@H](C)O)C(=O)N[C@@H](C)C(=O)N[C@@H]([C@@H](C)O)C(=O)N1)[C@@H](C)O)C(C)C)C(=O)N[C@@H](CC(C)C)C(=O)N1CCC[C@H]1C(=O)N1CCC[C@H]1C(=O)N[C@H](C(=O)N[C@@H](CC(N)=O)C(=O)N[C@H](C(=O)NCC(=O)N[C@@H](CO)C(=O)N[C@@H](CC(N)=O)C(=O)N[C@H](C(=O)N[C@@H](Cc1ccc(O)cc1)C(N)=O)[C@@H](C)O)C(C)C)[C@@H](C)O [Pramlintide]
- fibrillation [6]: fibrillates at pH 7
